The target of data set [1] is T1, novel mammalian opioid receptor (MSOR, LC132) (Rattus norvegicus, UniProt P35370).
T1 construct: The entire coding region of the receptor cDNA insert was subcloned in to the RcRSV vector; expressed in transfected cells
The format is binding.

For data set [2], the system named is untransfected COS-7 and Ltk- cells. Description: Radioligand binding to membranes of untransfected cells (control). The settings on record: untransfected COS-7 and Ltk- cell membranes.
Data set [3] can be described thus: Hot plate test of nociception; toe- and tail-pinch reflexes. The format is in vivo, mice. Here is the method:
Groups of 6-8 male MORO mice (weight=22 g) were administered phosphate buffered saline (open circles) or varying doses of the orphanin peptide. Reaction time represents the time taken for the mice to lick their paws. The hot plate was set to 58° C., and a cutoff time of 60 sec was used. […] (designated by an asterisk). This observation was most likely related to a decrease in locomotor activity and muscle tone.

Data set [4] in a line: Horizontal and vertical locomotor activity (Digiscan Animal Activity Monitors). The format is in vivo, mice. To be noted: i.c.v., 0.1-10 nmol/2 μL/mouse, first 10 min. Here is the method:
(§1) For these experiments, the peptide was administered intracerebroventricularly (i.c.v.) and intrathecally (i.t.) in mice. Immediately after peptide administration, mice were placed in transparent boxes in groups of three and behavioral signs recorded. Emphasis was placed on signs indicative of depressant, stimulant and autonomic effects of the peptide (as described by Irwin, 1968, Psychopharmacologia 13: 222). […] The effects of the peptide on horizontal (FIG. 10A) and vertical (FIG. 10B) locomotor activity was measured using Digiscan Animal Activity Monitors (Omnitech, Columbus Ohio). The values for horizontal and vertical locomotor activity represent the total number of interruptions of the horizontal and vertical sensors during the first 10 min following administration of the peptide. Data are shown as the mean ± standard error of the mean.

Data set [5] can be described thus: Open-field observation of behavioral signs after peptide administration. The format is in vivo, mice. Here is the method: as §1
In data set [6] the target is T2, novel mammalian MSOR opioid receptor (methadone-specific opioid receptor) (rat, UniProt P35370 1-367).
T2 construct: cAMP assays used whole cells; also called LC132; novel mammalian opioid receptor
T2 chain: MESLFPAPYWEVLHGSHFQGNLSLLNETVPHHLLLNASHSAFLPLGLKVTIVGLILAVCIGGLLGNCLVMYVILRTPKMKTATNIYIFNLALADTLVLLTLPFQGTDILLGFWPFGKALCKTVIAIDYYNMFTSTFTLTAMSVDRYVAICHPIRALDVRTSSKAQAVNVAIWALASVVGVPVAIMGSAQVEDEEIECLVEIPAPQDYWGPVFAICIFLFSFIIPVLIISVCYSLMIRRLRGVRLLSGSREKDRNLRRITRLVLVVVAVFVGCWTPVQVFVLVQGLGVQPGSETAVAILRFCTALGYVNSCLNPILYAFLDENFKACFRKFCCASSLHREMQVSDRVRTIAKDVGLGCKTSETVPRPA
Description: saturation radioligand binding (scintillation proximity assay) to membranes of MSOR-transfected CHO cells (LC-7), Scatchard analysis.

In data set [7] the target is T2, novel mammalian MSOR opioid receptor …. In words: assay not described.
Data set [8] shares this target. In words: cell-based or functional assay.

T1 sequence (P35370 whole entry): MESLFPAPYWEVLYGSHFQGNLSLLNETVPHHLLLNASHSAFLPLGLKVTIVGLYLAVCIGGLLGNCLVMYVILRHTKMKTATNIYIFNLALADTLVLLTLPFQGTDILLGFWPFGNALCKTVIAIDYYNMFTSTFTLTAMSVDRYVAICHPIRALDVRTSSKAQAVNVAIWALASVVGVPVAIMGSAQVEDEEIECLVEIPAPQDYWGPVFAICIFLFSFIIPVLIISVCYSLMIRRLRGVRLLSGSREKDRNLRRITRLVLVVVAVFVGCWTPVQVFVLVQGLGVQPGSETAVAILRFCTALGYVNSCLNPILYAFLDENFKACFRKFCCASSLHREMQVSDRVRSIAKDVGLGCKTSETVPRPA

On to `CCC12CCN(CC3(O)CC3)C(Cc3ccc(O)cc31)C2(C)C` (centres unmarked) [bremacozine], for which, in data set [1], the “specific binding of the radioactively-labeled opioid agonist or antagonist” value is listed as “no specific binding”.

With `CCC(=O)C(CC(C)N(C)C)(c1ccccc1)c1ccccc1` (centres unmarked) [methadone], the “endogenous specific binding of the radioligand” value in data set [2] is listed as “no or negligible amounts”. Also, in data set [1], the Bmax was 400-450 femtomoles/μg protein and the “specific binding of the radioactively-labeled opioid agonist or antagonist” value was “specific binding was found”.

Take `C[C@@H](NC(=O)[C@@H](N)Cc1ccc(O)cc1)C(=O)NCC(=O)N(C)[C@@H](Cc1ccccc1)C(=O)NCCO` [DAMGO, Tyr-DAla-Gly-Met-Phe-Gly-ol]: in data set [1], the “specific binding of the radioactively-labeled opioid agonist or antagonist” value is on record as “no specific binding”.

With `CC(C)C[C@H](NC(=O)[C@H](CCCCN)NC(=O)[C@H](CCCNC(=N)N)NC(=O)[C@H](C)NC(=O)[C@H](CO)NC(=O)[C@H](CCCCN)NC(=O)[C@H](CCCNC(=N)N)NC(=O)[C@H](C)NC(=O)CNC(=O)[C@@H](NC(=O)[C@H](Cc1ccccc1)NC(=O)CNC(=O)CNC(=O)[C@@H](N)Cc1ccccc1)[C@@H](C)O)C(=O)N[C@@H](C)C(=O)N[C@@H](CC(N)=O)C(=O)N[C@@H](CCC(N)=O)C(=O)O` [orphanin FQ], the “toe- and tail-pinch reflexes” value in data set [3] (all doses tested) is “normal”. Besides, in data set [3] (i.c.v., all doses except the highest, 10 nmol/mouse), the inhibition of nociception entry is “No significant inhibition”. The “analgesic effect in hot plate test” value in data set [3] (i.c.v., hot plate 58° C., cutoff 60 sec) is recorded as “little analgesic effect”. Also, the analgesic effect result in data set [3] (i.t., 2.5-10 nmol/4 μL/animal) was “No analgesic effect”. Besides, the “motor effects at the highest dose” value in data set [3] (i.t., highest dose) was “hindlimb paralysis and decrease in locomotor activity”. In addition, in data set [4], the horizontal locomotion entry is “decrease” and the vertical locomotion entry was “decrease”. In addition, in data set [5], the ataxia result was “ataxia”, the muscle tone result is on record as “decrease in muscle tone” and the righting reflex result is reported as “loss of righting reflex”. In data set [5] (i.c.v. and i.t. administration), the “influence on locomotor activity” value was “profound influence on locomotor activity”.

Turning to β-endorphin, the “specific binding of the radioactively-labeled opioid agonist or antagonist” value in data set [1] is recorded as “no specific binding”.

As for `CN1CC[C@]23c4c5ccc(O)c4O[C@H]2[C@@H](O)CC[C@H]3[C@H]1C5` [dihydromorphine], the “specific binding of the radioactively-labeled opioid agonist or antagonist” value in data set [1] is reported as “no specific binding”.

On to `C=CCN1CC[C@]23c4c5ccc(O)c4O[C@H]2C(=O)CC[C@@]3(O)[C@H]1C5` [naloxone], for which, in data set [2], the “endogenous specific binding of the radioligand” value is recorded as “endogenous low levels of specific”.

Take `CC[C@]12CCN(CC3CC3)[C@H](C(=O)c3ccc(O)cc31)[C@@H]2C` [ethylketocyclazocine]: the “specific binding of the radioactively-labeled opioid agonist or antagonist” value in data set [1] is on record as “no specific binding”.

B1: monoiodinated Y14-orphanin FQ (peptide)
peptide: FGGFTGARKSARKYANQ
modifications: monoiodotyrosine at position 14 (125I in the binding assay), made by the chloramine T method
notes: also called I-Y14
Take B1: the Kd in data set [6] was determined as 0.3 nM.

As for YGGFLRRIRPKLKWDNQ [dynorphin A], in data set [7], the binding result is “no binding”.

As for YGGFL [Leu-Enkephalin], in data set [7], the binding result is given as “no binding”.

As to YGGFMTSEKSQTPLVT [α-endorphin], in data set [7], the binding result is given as “no binding”.

For YGGFLRRQFKVVT [dynorphin B], the binding result in data set [7] is “no binding”.

FGGFTGARKSARKYANQ [Y14-orphanin FQ]: the “cAMP inhibition assay in MSOR-transfected CHO cells, EC50” value in data set [8] is 1 nM.
